# ChEMBL document CHEMBL1201862, “PubChem BioAssay data set” (2004)
# Activity calls are given as the source filed them.
# Experiments:
# [1] = target: T1, Mannose-6-phosphate isomerase (Homo sapiens, UniProt P34949); experiment: MPI inhibition at elevated mannose 6-phosphate – biochemical, fluorescence intensity, high mannose 6-phosphate, primary screen (AID 1220)
# T1 sequence (P34949 whole entry): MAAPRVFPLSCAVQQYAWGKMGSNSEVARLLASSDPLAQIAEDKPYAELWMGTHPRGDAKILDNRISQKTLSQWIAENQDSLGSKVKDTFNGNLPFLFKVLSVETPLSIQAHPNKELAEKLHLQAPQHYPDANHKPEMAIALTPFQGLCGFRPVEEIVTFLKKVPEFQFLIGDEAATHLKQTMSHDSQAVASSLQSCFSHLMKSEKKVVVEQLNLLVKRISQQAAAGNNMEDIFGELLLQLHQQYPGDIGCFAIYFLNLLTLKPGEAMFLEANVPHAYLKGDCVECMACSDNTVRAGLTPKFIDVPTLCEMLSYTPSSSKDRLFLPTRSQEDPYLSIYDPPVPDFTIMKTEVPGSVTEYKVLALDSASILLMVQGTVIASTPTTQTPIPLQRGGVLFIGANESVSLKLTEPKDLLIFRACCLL
# [2] = target: Disintegrin and metalloproteinase domain-containing protein 17 (Homo sapiens, UniProt P78536); experiment: exosite inhibitors of ADAM17, dose response, biochemical (AID 743260)
# [3] = inhibition of ADAM10 peptide cleavage – biochemical, FRET peptide substrate, recombinant human ADAM10, selectivity assay for ADAM17 exosite inhibitor project, dose response (AID 743259);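 further: ADAM10 enzyme cleaving a FRET peptide substrate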
# [4] = OVCAR8 cell viability loss – plate reader, dry powder samples, PAX8 project, dose response (AID 743197); format: functional, cell-based; settings: OVCAR-8
# [5] = target: Paired box protein Pax-8 (Homo sapiens, UniProt Q06710); experiment: PAX8 transcriptional activity inhibition in RMG-I – RMG-I cells, luciferase, cherry-pick, dose response (AID 687027); format: functional, cell-based;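 further: luciferase reporter driven by Pax8 target thyroperoxidase promoter measured by SteadyGlo luminescence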
# [6] = IGROV1 cell killing – plate reader, dry powder samples, PAX8 inhibitor project, dose response (AID 743043); format: functional, cell-based; settings: IGROV-1
# [7] = general cell-killing toxicity readout – plate reader, dry powder samples, cytotoxicity control for PAX8 inhibitor project, dose response (AID 743021); format: functional, cell-based
# [8] = A cytotoxicity screen of small molecule inhibitors of the PhoP region in Salmonella typhi identified in the primary screen. [Related pubchem assays: 1850, 1864, 1985 ]; format: functional
# [9] = Trypanosoma cruzi growth suppression in host cells – NIH3T3 host cells, beta-gal luminescence, confirmation (AID 2044); format: functional, cell-based;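 further: intracellular parasites grown in NIH/3T3 mouse fibroblasts as host cells; luminescent beta-galactosidase reporter signal from transgenic T. cruzi replicating inside host cells; inhibitors lower the luminescence signal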
# [10] = target: T2, Protein RecA (Mycobacterium tuberculosis, UniProt P9WHJ3); experiment: Fluorescence Cell-Free Homogeneous Dose Retest to Identify Inhibitors of RecA-Intein Splicing Activity. [Related pubchem assays (depositor defined):AID2097, AID2223, AID489010, AID492950]; format: functional
# T2 sequence (P9WHJ3 whole entry): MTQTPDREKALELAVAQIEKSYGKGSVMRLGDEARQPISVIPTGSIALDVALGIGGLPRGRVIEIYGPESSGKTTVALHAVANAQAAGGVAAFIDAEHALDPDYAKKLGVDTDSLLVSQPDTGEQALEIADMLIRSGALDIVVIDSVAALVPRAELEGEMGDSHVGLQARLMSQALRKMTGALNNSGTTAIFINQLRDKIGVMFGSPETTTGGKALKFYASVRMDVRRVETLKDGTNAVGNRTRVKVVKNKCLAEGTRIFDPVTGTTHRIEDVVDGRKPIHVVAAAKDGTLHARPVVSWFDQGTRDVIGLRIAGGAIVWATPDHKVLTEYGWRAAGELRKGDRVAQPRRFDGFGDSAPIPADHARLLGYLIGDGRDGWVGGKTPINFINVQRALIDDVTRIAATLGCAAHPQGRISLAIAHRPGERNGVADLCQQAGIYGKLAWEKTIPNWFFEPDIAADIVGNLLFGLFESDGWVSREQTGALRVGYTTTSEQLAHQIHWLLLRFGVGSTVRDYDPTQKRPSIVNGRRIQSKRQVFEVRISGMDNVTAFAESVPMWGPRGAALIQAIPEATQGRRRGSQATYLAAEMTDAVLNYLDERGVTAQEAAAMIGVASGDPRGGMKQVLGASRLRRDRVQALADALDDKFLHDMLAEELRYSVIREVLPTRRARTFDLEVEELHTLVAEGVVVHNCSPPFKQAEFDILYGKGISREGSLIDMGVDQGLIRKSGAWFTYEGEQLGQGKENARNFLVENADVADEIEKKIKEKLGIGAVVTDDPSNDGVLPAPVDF
# [11] = cells; format: functional
# [12] = test system: CHO; experiment: CHO cell viability loss, potency – luminescence, cytotoxicity control for TLR9-MyD88 binding inhibitor project, dose response (AID 588339); format: functional, cell-based, hamster; settings: Cricetulus griseus;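 further: CHO cells stably coexpressing TLR9 and MyD88 fusions from primary screen; compound exposure lasted 48 hours before viability readout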
# [13] = target: T3, Heat shock factor protein 1 (Mus musculus, UniProt P38532); experiment: decrease of HSF1-responsive luciferase luminescence – cell-based, NIH3T3, dose retest, confirmation (AID 2382); format: functional;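 further: NIH3T3 fibroblasts with HSF1-driven luciferase reporter stressed by proteasome inhibitor MG132; luminescence from HSF1-driven luciferase expression after 8 hours of MG132 stress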
# T3 sequence (P38532 whole entry): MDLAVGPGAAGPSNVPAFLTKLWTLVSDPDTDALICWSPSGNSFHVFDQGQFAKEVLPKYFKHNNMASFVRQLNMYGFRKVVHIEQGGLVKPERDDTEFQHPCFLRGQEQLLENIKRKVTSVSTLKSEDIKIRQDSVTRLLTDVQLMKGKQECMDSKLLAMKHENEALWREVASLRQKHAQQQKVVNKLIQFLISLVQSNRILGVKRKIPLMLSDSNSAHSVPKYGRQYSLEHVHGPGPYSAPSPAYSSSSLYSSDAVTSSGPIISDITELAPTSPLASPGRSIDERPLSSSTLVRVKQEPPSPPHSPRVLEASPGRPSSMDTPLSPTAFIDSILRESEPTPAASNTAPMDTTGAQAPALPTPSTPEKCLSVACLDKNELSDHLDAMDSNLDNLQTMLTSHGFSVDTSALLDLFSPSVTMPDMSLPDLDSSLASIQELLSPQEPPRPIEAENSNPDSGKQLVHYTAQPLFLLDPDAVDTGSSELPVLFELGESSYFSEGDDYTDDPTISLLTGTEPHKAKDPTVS
# [14] = target: T4, Replicative DNA helicase DnaB (Mycobacterium tuberculosis, UniProt P9WMR3); experiment: DnaB intein splicing inhibitors, dose response, biochemical, cell-free fluorescence (AID 449749); format: functional
# T4 sequence (P9WMR3 whole entry): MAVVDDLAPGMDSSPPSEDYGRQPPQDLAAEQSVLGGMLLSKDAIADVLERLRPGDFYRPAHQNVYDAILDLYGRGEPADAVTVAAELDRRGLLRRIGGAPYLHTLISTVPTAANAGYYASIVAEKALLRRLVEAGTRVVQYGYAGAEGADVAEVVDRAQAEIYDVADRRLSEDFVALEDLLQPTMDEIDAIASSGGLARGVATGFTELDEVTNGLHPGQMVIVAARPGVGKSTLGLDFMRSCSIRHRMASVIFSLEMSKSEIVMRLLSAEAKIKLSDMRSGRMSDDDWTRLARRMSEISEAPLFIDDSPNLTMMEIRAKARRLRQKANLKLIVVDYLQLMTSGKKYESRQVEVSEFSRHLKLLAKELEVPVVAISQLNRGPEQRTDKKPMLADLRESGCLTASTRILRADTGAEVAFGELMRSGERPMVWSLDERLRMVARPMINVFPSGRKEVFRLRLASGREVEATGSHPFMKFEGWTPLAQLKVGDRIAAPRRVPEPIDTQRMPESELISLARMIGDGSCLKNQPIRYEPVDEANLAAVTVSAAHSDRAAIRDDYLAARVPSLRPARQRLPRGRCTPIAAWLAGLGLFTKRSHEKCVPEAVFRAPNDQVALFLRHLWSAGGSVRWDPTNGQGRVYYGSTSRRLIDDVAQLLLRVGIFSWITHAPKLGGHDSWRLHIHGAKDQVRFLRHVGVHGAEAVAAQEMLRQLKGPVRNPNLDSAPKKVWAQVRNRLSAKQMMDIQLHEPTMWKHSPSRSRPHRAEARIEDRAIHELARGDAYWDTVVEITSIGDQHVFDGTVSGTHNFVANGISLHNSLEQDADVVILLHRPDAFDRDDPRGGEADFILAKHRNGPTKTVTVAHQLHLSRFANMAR
# [15] = NIH3T3 cell viability loss – ATP luminescence, mouse fibroblasts, counter-screen, dose response (AID 2010); format: functional, cell-based;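 further: cells exposed to compound for about 90 hours before reading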
# [16] = target: Beta Lactamase (Pseudomonas aeruginosa, UniProt Q932Y6); experiment: BLA reporter interference, concentration series – BLA reporter cells, FRET fluorescence, artefact control for TLR9-MyD88 binding inhibitor project, dose response (AID 588341); format: cell-based;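 further: cell based assay in CHO-K1 cells stably expressing beta-lactamase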
# [17] = THP-1 cell cytotoxicity, dose response, cytotoxicity control for non-replicating M. tuberculosis project (AID 489025); format: functional
# [18] = target: Ephrin type-A receptor 4 (Mus musculus, UniProt Q03137); experiment: EphA4 ligand-binding antagonists – biochemical, colorimetric, mouse EphA4, primary screen (AID 689); format: functional
# [19] = target: T5, Corticotropin-releasing factor receptor 2/Corticotropin-releasing factor-binding protein (Homo sapiens, UniProt P24387+Q13324); experiment: activators of CRF receptor 2 with binding protein – uHTS hits, confirmation (AID 602473); format: functional; settings: read-out: EC50_Mean
# T5 sequence (Q13324 whole entry): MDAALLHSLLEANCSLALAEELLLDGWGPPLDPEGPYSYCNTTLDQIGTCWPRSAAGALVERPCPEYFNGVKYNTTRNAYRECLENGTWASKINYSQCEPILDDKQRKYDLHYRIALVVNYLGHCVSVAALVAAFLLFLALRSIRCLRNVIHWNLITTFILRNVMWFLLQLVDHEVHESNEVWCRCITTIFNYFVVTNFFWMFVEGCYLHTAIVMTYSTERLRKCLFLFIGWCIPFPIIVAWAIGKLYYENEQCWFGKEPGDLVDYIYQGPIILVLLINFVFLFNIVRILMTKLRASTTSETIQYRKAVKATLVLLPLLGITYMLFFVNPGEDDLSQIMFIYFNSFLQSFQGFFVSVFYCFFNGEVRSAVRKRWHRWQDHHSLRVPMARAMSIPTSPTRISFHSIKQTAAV
# T5 sequence (P24387 whole entry): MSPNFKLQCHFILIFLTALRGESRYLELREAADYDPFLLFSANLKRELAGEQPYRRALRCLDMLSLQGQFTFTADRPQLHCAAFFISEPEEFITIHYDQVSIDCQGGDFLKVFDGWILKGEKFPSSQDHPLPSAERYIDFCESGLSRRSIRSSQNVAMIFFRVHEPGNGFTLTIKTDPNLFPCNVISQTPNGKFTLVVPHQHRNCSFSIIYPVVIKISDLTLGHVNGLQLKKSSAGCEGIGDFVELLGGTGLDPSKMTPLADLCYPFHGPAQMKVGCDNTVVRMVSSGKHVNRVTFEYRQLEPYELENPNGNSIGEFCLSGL
# Chain of Ephrin type-A receptor 4 (Q03137 whole entry): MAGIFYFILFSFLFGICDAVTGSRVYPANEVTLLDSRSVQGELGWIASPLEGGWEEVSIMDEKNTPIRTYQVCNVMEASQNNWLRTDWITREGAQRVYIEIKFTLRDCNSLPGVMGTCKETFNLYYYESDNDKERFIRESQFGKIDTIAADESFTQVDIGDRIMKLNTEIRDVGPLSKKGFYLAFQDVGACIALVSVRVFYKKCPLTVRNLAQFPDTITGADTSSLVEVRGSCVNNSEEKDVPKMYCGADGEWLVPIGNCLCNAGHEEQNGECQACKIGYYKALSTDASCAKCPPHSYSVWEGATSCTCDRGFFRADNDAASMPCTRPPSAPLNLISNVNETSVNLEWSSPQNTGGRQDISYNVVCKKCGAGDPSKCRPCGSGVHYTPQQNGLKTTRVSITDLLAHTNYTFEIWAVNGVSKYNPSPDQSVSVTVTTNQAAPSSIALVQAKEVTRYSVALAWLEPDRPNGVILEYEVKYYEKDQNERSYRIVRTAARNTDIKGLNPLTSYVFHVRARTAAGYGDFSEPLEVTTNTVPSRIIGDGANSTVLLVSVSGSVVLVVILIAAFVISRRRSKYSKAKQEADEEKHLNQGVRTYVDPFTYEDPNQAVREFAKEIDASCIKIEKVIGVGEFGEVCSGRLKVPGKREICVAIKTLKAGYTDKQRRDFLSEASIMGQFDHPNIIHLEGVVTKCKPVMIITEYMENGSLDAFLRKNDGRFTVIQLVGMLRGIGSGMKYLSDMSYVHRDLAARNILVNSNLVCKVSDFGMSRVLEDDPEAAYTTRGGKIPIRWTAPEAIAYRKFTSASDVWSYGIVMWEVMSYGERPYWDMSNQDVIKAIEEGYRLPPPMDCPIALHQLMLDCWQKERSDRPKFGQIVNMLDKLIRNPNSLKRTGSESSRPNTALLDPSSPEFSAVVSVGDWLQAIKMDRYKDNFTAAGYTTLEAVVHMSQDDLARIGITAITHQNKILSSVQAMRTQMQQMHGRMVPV
# Chain of Paired box protein Pax-8 (Q06710 whole entry): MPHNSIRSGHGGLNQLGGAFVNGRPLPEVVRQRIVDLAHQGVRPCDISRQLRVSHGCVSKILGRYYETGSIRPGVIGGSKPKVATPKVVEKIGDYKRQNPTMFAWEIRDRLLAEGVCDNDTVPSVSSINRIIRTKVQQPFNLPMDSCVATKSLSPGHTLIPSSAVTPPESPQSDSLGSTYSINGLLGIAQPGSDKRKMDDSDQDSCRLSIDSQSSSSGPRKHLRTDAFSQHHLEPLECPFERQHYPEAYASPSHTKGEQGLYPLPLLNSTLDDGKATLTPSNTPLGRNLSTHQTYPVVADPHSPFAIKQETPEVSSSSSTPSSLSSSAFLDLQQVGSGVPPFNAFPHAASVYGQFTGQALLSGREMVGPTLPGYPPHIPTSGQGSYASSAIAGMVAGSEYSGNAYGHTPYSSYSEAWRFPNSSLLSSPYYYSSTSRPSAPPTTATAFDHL
# Chain of Beta Lactamase (Q932Y6 whole entry): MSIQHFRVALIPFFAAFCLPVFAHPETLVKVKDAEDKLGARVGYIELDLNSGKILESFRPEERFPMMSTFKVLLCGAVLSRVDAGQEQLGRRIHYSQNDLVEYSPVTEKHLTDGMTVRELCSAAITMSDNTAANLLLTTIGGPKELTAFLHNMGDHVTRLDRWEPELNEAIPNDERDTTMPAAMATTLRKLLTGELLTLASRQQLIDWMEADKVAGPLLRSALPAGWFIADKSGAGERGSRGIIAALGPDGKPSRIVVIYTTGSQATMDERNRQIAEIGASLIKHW
# Chain of Disintegrin and metalloproteinase domain-containing protein 17 (P78536 whole entry, the tested form may be a part): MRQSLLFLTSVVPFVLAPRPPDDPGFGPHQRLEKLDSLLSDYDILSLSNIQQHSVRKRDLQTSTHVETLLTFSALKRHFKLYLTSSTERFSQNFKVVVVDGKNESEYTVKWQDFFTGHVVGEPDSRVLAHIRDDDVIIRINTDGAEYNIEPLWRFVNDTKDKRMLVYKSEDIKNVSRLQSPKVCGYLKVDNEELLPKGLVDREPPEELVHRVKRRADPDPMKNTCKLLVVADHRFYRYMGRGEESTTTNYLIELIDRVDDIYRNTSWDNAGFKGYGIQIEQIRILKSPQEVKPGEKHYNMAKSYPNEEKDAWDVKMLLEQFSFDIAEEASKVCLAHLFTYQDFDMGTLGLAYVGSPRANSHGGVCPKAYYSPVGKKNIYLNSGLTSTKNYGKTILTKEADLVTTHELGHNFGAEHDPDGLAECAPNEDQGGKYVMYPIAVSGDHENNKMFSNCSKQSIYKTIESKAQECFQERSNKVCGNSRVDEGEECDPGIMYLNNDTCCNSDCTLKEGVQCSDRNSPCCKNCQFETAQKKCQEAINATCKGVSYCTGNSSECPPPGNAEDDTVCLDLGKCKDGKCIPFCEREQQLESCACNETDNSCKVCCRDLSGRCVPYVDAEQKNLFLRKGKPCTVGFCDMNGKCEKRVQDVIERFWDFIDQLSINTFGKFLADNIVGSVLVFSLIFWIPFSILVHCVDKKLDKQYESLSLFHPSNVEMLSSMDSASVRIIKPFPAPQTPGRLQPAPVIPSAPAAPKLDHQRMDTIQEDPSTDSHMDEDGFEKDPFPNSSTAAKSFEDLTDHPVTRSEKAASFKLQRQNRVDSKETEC
compound,measurement,setting,value
COCCO/C(O)=C1\C(C)=NC2(O)c3ccccc3C(=O)C12O (stereo not given),IC50,[1],> 50 µM (not active)
Cc1noc(C)c1C(=O)OCC(=O)Nc1ccccc1Oc1ccccc1,IC50,[2],> 69.5 µM (inactive)
same,IC50,[3],> 69.5 µM (inactive)
C[C@@H]1CN([C@H](C)CO)C(=O)c2cc(NC(=O)Nc3ccc(C(F)(F)F)cc3)ccc2O[C@@H](C)CCCCO[C@H]1CN(C)Cc1ccc2c(c1)OCO2,AC50,[4],31.6 µM (active)
same,AC50,[5],7.63 µM (active)
same,AC50,[6],26.7 µM (active)
same,AC50,[7],66.4 µM (active)
CCCOc1ccc(C2=CSC3=NCCN23)cc1Cl,EC50,[8],> 50 µM (active)
CCS(=O)(=O)c1ncc(Cl)c(C(=O)Nc2ccc(C)cc2)n1,EC50,[9],2.31 µM (active)
same,EC50,[10],6.94 µM (active)
same,AC50,[5],17.2 µM (active)
same,IC50,[11],5.21 µM (active)
same,IC50,[12],3.98 µM (active)
same,EC50,[13],5.18 µM (inconclusive)
same,AC50,[14],5.56 µM (active)
same,EC50,[15],4.9 µM (active)
same,IC50,[16],7.65 µM (active)
same,AC50,[7],34.9 µM (active)
same,CC50,[17],21 µM (active)
C=CCn1c(SCC(=O)Nc2ncc(Cc3cc(C(F)(F)F)ccc3Cl)s2)nnc1-c1ccncc1,IC50,[18],> 100 µM (not active)
CSc1ccccc1/N=C/c1nc(-c2ccccc2)oc1O,IC50,[18],37.6 µM (active)
Cn1cc([N+](=O)[O-])c(C(=O)Nc2ccc3c(c2)OCCO3)n1,IC50,[18],> 100 µM (not active)
O=[N+]([O-])c1ccc(N(c2ccccc2)c2ccccc2)cc1,IC50,[12],> 49.7 µM (inactive)
same,IC50,[18],10.8 µM (active)
same,EC50,[19],24.3 µM (active)
